Experimental data from patent US5955508A, “Method for the enhancement of lymphocyte activity against opportunistic microbial pathogens” (priority 1996, dated 1999).
Where two headings read alike, the source gives them in different places.

Legend:
[1] = system: INF-γ in CD4+ (CD8-) T cells; assay: INF-γ production by CD4+ (CD8-) T cells, flow cytometry; assay type: cell-based, human; conditions: for % Positive Cells (INF-γ immunopositive), d-FEN / INF-γ Titer, d-FEN: CD4+ (CD8-) T cells, Mean ± SEM; for activation at 0.05 µg/mL: Homo sapiens, T-cell
Excerpt: (§1) The T lymphocytes analyzed were obtained from 20 HIV+ patients (9 females and 11 males, 25-48 years of age). The patients were diagnosed as being HIV+ within the past 0.5-9 years, and 15 are being treated with antiviral drugs. The subjects' study identification number (indicates the order in which bloods were drawn), CD4+ and CD8+ counts (determined March, 1996, as part of the present study), age, sex, date of diagnosis, and pharmacotherapy are provided in Table 1.
(§2) The experimental protocol for this project is illustrated in Table A. Note that the cultures were exposed to two doses (5 and 50 ng/ml) of d-FEN in the mitogenesis assays, whereas only one dose (50 ng/ml) was used in the antifungal and cytokine release assays.
(§3) Cytokine Profiles. Peripheral mononuclear cells were isolated by the Ficoll-Hypaque method and washed twice with RPMI-1640 medium. Cell suspensions were made at 1×10^6 /ml and the cells activated with interleukin-2 (IL-2) for 18 h or 4 days at 37° C. under 5% CO^2 +95% air. Monensin (1 nM) then was added to the culture to block secretion of cytokines, and the cultures allowed to continue for another 3 h. The cells were washed twice with PBS+1% fetal calf serum (FCS) with 0.1% saponin+0.1% sodium azide, then washed once with PBS-1% FCS and stained with anti-cytokine MAb-FL conjugate for 30 min. Following two washes, the cells were analyzed by flow cytometry for production of IL-2, IFN-γ and TNF-α. The MAbs-FL conjugates were obtained from Pharmingen (San Diego, Calif.). Potential effects of on cytokine production were evaluated (a) as increases in the percentage of a T cell subset which produce the respective cytokine; and, (b) as increases in the amount of cytokine produced by each subset. The latter were analyzed as a shift of the cytokine histograms.
(§4) The data were analyzed by a one- or two-way analysis of variance (ANOVA) with repeated measures where appropriate ([…] version 1; Jandel, San Rafael, Calif.). Significant main effects were subjected to post hoc analysis using the Student-Newman Keuls All Pairwise Multiple Comparisons test or the Mann-Whitney U test.

INF-γ in CD8+ T cells = assay: INF-γ production by CD8+ T cells, flow cytometry; assay type: cell-based, human; conditions: 50 ng/ml, Mean ± SEM
Excerpt: as §1, §2, §3, §4

K562 human tumor cells = assay: Natural killer cell cytotoxicity of human PBMC against K562 tumor cells in vitro; assay type: cell-based
Procedure: Prior to conducting the above experiment, we examined the dose dependent effects of d-FEN on the ability of human PBMC obtained from five healthy volunteers (person Caucasians) to kill human K562 tumor cells in vitro. The potential cytotoxic enhancing effects of d-FEN and d-norFEN were compared using PBMC from two of the five human donors.
For assessment of immunological parameters of human PBMC, venous blood as aseptically drawn into sterile 10 ml tubes containing 20 U/ml preservative free heparin, diluted with an equal volume of Hank's Balanced Salt Solution (HBSS), layered over Lymphocyte Separation Medium (LSM, Bionetics, Kensington, Md.) and centrifuged at 1,000 ×g for 30 min. After centrifugation, the mononuclear cell layer was recovered from the interface and washed twice in HBSS and enumerated.
The K562 cell line originated from a chronic myelogenous leukemia patient and was obtained from Dr. T. Ellis (Director, Cellular Immunology Laboratory, LUMC). The K562 cells used for assessment of cytotoxic activity were maintained in long term cultures using Corning 25 cm^2 tissue culture flasks (Corning Glass Works, Corning, N.Y.) containing RPMI 1640 (Gibco Laboratories, Grand Island, N.Y.) supplemented with low LPS 10% fetal bovine serum (FBS; Gibco), 100 units/ml penicillin, 100 μg/ml streptomycin (Whittaker M. A. Bioproducts, Walkersville, Md.), 0.1 mM non-essential amino acids, and 2 mM L-glutamine (Gibco). This medium was used throughout, except where noted, and is referred to as "culture medium". The K562 cells were grown in suspension and were passaged three times per week by transfer of 10^6 K562 cells into a flask containing 10 ml of fresh culture medium. The K562 cells injected into the SCID mice were supplemented with fresh medium at a 1:3 dilution the day before administration. They were washed once in medium, pelleted by centrifugation at 500 ×g for 10 min., then resuspended at a concentration of 5×10^7. Subsequently, 0.2 ml (1×10^7 cells) of the cell suspension was injected (i.p.) into each SCID mouse. The K562 cells were administered to the animals four days after the injection of PBMC.
The K562 tumor cell lines maintained in vitro were washed once in culture medium, pelleted by centrifugation at 500×g for 10 min and resuspended in approximately 0.1 ml of culture medium. Subsequently, 100 μCi of [^51 Cr] (New England Nuclear, Boston, Mass.) was added to 1×10^5 cells in a final volume of 0.2 ml. The cells were incubated at 37° C. with 5% CO2 for 1 h with agitation every 10 min, then washed 3 times in HBSS, resuspended to 5×10^4 cells/ml in culture medium and 0.1 ml (5×10^3) aliquoted to each well of a 96 well round bottom assay plate (Corning Glass Works, Corning, N.Y.). Radiolabelled K562 was cultured for 4 h with lymphocytes at effector to target ratios ranging from 50:1 to 6:1. Following 4 h of culture the media was removed using a Skatron harvesting press (Skatron Inc., Sterling, Va.) and associated radioactivity determined. Maximum release was obtained by adding 0.05% Nonidet P-40 (Sigma Chemical Co., St. Louis, Mo.).
The results have been expressed as % cytotoxicity and calculated by the formula: % cytotoxicity=[(experimental DPM-minimum DPM)/(maximum DPM-minimum DPM)]×100.
All experimental means were calculated from triplicate values. Lytic units (LU) were calculated using a computer program written by David Coggins, FCRC, Frederick, Md.

lymphocyte functions = conditions: Clancy and Lorens, 1996, Mathews et al.; cited from earlier work
[2] = whether by intravenous or oral administration; cited from earlier work

## CCN[C@@H](C)Cc1cccc(C(F)(F)F)c1 [d-FEN]
[1]; 50 ng/ml, AIDS
  % Positive Cells (INF-γ immunopositive), d-FEN: 18 ± 2%
  INF-γ Titer, d-FEN: 336 ± 45 geometric mean channel fluorescence
[1]; 50 ng/ml, non-AIDS HIV+
  % Positive Cells (INF-γ immunopositive), d-FEN: 16 ± 2%
  INF-γ Titer, d-FEN: 473 ± 37 geometric mean channel fluorescence
[1]; 50 ng/ml, CD4+ T cells
  effect on INF-γ levels in words: did not have any significant effect
[1]; read-out: percent increase over VEH (printed under Titer, d-FEN), 50 ng/ml, CD4+ T cells, AIDS
  activation at 0.05 µg/mL: 38%
[1]; read-out: percent increase over VEH (printed under Titer, d-FEN), 50 ng/ml, CD4+ T cells, non-AIDS
  activation at 0.05 µg/mL: 33%
[1]; 50 ng/ml, CD4+ T cells, all patients, p=0.007, read-out: increase in the percent of INF-γ immunopositive T cells
  activation at 0.05 µg/mL: 33 to 38%
INF-γ in CD8+ T cells; AIDS
  % Positive Cells (INF-γ immunopositive), d-FEN: 40 ± 5%
  INF-γ Titer, d-FEN: 764 ± 86 geometric mean channel fluorescence
INF-γ in CD8+ T cells; non-AIDS HIV+
  % Positive Cells (INF-γ immunopositive), d-FEN: 47 ± 4%
  INF-γ Titer, d-FEN: 964 ± 71 geometric mean channel fluorescence
K562 human tumor cells; 0.25 ng/ml
  Percent Change in Cytotoxicity (Mean ± SEM): 19 ± 2%
K562 human tumor cells; 0.25 ng/ml, DONOR #1
  percent increase in cytotoxicity: 22%
K562 human tumor cells; 0.25 ng/ml, DONOR #2
  percent increase in cytotoxicity: 19%
K562 human tumor cells; 0.50 ng/ml
  Percent Change in Cytotoxicity (Mean ± SEM): 28 ± 4%
K562 human tumor cells; 0.50 ng/ml, DONOR #1
  percent increase in cytotoxicity: 36%
K562 human tumor cells; 0.50 ng/ml, DONOR #2
  percent increase in cytotoxicity: 21%
K562 human tumor cells; 1.00 ng/ml
  Percent Change in Cytotoxicity (Mean ± SEM): 16 ± 3%
K562 human tumor cells; 1.00 ng/ml, DONOR #1
  percent increase in cytotoxicity: 23%
K562 human tumor cells; 1.00 ng/ml, DONOR #2
  percent increase in cytotoxicity: 17%
K562 human tumor cells; 4.00 ng/ml
  Percent Change in Cytotoxicity (Mean ± SEM): 11 ± 5%
K562 human tumor cells; 20.00 ng/ml
  Percent Change in Cytotoxicity (Mean ± SEM): -33 ± 5%
K562 human tumor cells; 50.00 ng/ml
  Percent Change in Cytotoxicity (Mean ± SEM): -53 ± 6%
K562 human tumor cells; 100.00 ng/ml
  Percent Change in Cytotoxicity (Mean ± SEM): -87 ± 2%
K562 human tumor cells; PBMC of five healthy volunteers, p<0.001
  dose dependent effect on cytotoxicity in words: low doses of d-FEN enhanced whereas higher doses reduced cytotoxicity
K562 human tumor cells; PBMC of two donors
  d-FEN vs d-norFEN effect on cytotoxicity in words: virtually identical effects
K562 human tumor cells; conclusion
  effect on capacity of human NK cells to kill K562, in words: augments the capacity of human NK cells to kill the human tumor cell line, K562
Lymphocyte functions
  immune functions in experimental animal models, in words: augment T and B lymphocyte functions, to increase cell-mediated cytotoxicity for natural killer cell (NK) tumor targets and to enhance cell-mediated activities for opportunistic microbial pathogens
[2]
  protein binding: about 36%
